The values that follow come from publication PMC10385743.

The term EC50 denotes the concentration needed to bring the measured effect to its halfway point. Usually EC90 stands for the point of the concentration-response curve where the effect stands at 90%. What is called CC50 is the concentration that lowers cell viability or growth by half.

Read-outs that look alike come from different tables or passages of the source.

Data set [1] concerns YFV (strain 17D) subgenomic replicon. The data set can be described thus: microbe, parasite or virus in culture. The conditions noted are these: Yellow fever virus, 72 h, read-out: Huh7-YF (YFV Replicon 17D) EC50. The format is cell-based, yellow fever virus.
The subject of data set [2] is DENV serotype 2 (strain 16681) subgenomic replicon. Nature of the data set: microbe, parasite or virus in culture. The class given is cell-based, dengue virus. The conditions noted are these: Dengue virus, DENV2; 72 h; luciferase; mean ± SD; read-out: Huh7-D2 (DENV-2 Replicon) EC50. For orientation: A replicon is a self-replicating genome or part of one, used to study replication in cells.

The subject of data set [3] is bloodstream form T. b. brucei (strain 221). The conditions noted are these: for increase in activity against T. brucei relative to parent compound: 38, 40, 41 versus parent 36, 42 versus parent 37; for SI (CC50 for L6 cells / EC50 for T. brucei): selectivity index; for EC50: read-out: T. brucei EC50, cultured bloodstream form, mean of triplicate experiments ± SEM.
The test system of data set [4] is T. cruzi (CL Brener strain) epimastigotes. Nature of the data set: microbe, parasite or virus in culture. The settings on record: Trypanosoma cruzi; for EC50: read-out: T. cruzi EC50; for EC90: read-out: T. cruzi EC90.
Data set [5] deals with HCV GT 3a (strain S52) subgenomic replicon. The data set can be described thus: microbe, parasite or virus in culture. The format is cell-based, hepatitis C virus. The settings on record: Hepatitis C virus, GT3A, 72 h, luciferase, mean ± SD, read-out: Huh7.5-3a(S52) (HCV Replicon 3a) EC50.
In data set [6] the test system is HCV GT 4a (strain ED43) subgenomic replicon. The data set can be described thus: microbe, parasite or virus in culture. The class given is cell-based, hepatitis C virus. The settings on record: Hepatitis C virus, GT4A, 72 h; luciferase; mean ± SD; read-out: Huh7.5-4a(ED43) (HCV Replicon 4a) EC50.
Data set [7] relates to bloodstream form T. b. brucei (strain 221). Nature of the data set: microbe, parasite or virus in culture. The settings on record: Trypanosoma brucei, mean of triplicate experiments ± SEM; for EC50: read-out: T. brucei EC50, cultured bloodstream form; for EC90: read-out: T. brucei EC90, cultured bloodstream form.
Data set [8] in a line: Cytotoxicity against cultured L6 cells (resazurin). The settings on record: rat, L6 rat skeletal myoblast cells, L6 Cells CC50, mean of triplicate experiments ± SEM. On the technique in general: The colour change of resazurin is a common sign of viable cells or microbes.
Data set [9] relates to T. cruzi (CL Brener strain) epimastigotes. The settings on record: selectivity index.
Data set [10] in a line: Cytotoxicity in Huh5-2 replicon cells (intracellular ATP levels). The settings on record: human.
The subject of data set [11] is bloodstream form T. b. brucei (strain 221). The settings on record: cited from earlier work.
In data set [12] the test system is rat skeletal myoblast L6 cells. The data set can be described thus: Cytotoxicity against cultured L6 cells (resazurin). The conditions noted are these: read-out: L6 Cells CC50; mean of triplicate experiments ± SEM.
Data set [13] concerns HCV. On the set-up: method as in doi:10.1039/C5MD00439J. The conditions noted are these: read-out: Antiviral activity (Hepatitis C) EC50; cited from earlier work.
The mark [14] stands for this setting: earlier lead compounds, read-out: T. brucei EC50.

With `CN1C(=O)N(CC(=O)NO)C(=O)C12CCC(c1ccccc1)CC2` (centres unmarked) [Compound 38, N-Hydroxy-2-(1-methyl-2,4-dioxo-8-phenyl-1,3-diazaspiro [4.5]decan-3-yl)acetamide], the EC50 is above 10 µM in [1]; 10.2 ± 0.18 µM in data set [2]; 6.25 ± 0.24 µM in data set [4]; 0.63 ± 0.01 µM in [5]; 0.22 µM in data set [6]; 0.1 ± 0.01 µM in data set [7]. Also, the “increase in activity against T. brucei relative to parent compound” value in data set [3] was determined as 9 fold. Besides, the “SI (CC50 for L6 cells / EC50 for T. brucei)” value in data set [3] amounted to 220. The EC90 turned out to be 13.3 ± 0.3 µM in [4] and 0.14 ± 0.01 µM in data set [7]. In data set [8], this compound displayed a CC50 at 6 days of 21.7 ± 3.9 µM. Moreover, in data set [9], the “SI (CC50 for L6 cells / EC50 for T. cruzi)” value is listed as 4. In [10], half-maximal cytotoxicity (CC50 at 72 h) was put at 43.1 ± 2.11 µM.

With `O=C(CN1C(=O)NC2(CCc3ccccc32)C1=O)NO` (centres unmarked) [III], in data set [11] (setting [14]), the EC50 is 0.44 ± 0.08 µM.

In the case of `O=C(CN1C(=O)N(Cc2ccccc2)C2(CCC(c3ccccc3)CC2)C1=O)NO` (centres unmarked) [Compound 41, N-Hydroxy-2-(1-benzyl-2,4-dioxo-8-phenyl-1,3-diazaspiro [4.5]decan-3-yl)acetamide], the EC50 in data set [1] is above 10 µM; in data set [2], above 10 µM; in [4] it was 0.34 ± 0.02 µM; in data set [5], above 10 µM; in [6], above 10 µM; in [7] it was 0.009 ± 0.001 µM. Moreover, the “increase in activity against T. brucei relative to parent compound” value in data set [3] is on record as 100 fold. For the same compound, in data set [3], the “SI (CC50 for L6 cells / EC50 for T. brucei)” value came to 440. The EC90 turned out to be 0.74 ± 0.05 µM in data set [4] and 0.011 ± 0.001 µM in data set [7]. The compound also gave a CC50 at 6 days in data set [8] of 3.98 ± 0.32 µM. The “SI (CC50 for L6 cells / EC50 for T. cruzi)” value in data set [9] came out at 12. In data set [10], this compound showed a CC50 at 72 h above 10 µM.

Turning to `CC(C(=O)NO)N1C(=O)N(C)C2(CCC(c3ccccc3)CC2)C1=O` (centres unmarked) [Compound 53, N-(hydroxy)-2-(1-methyl-2,4-dioxo-8-phenyl-1,3-diazaspiro [4.5]decan-3-yl)propanamide], the EC50 in [1] was above 10 µM; in data set [2], 2.45 ± 0.22 µM; in [4], 8.5 ± 0.23 µM; in data set [5], above 10 µM; in [6] it was 0.28 ± 0.02 µM; in data set [7] it was 0.154 ± 0.009 µM. For the same compound, the “SI (CC50 for L6 cells / EC50 for T. brucei)” value in [3] was 590. For the same compound, the EC90 turned out to be 11.9 ± 0.5 µM in data set [4] and 0.281 ± 0.006 µM in [7]. This compound also had a CC50 at 6 days in data set [8] of 90.5 ± 7.3 µM. Further, in data set [9], the “SI (CC50 for L6 cells / EC50 for T. cruzi)” value was found to be 11. Further, in data set [10], the CC50 at 72 h was 100 ± 3.57 µM.

Consider `CCN1C(=O)N(CC(=O)NO)C(=O)C12CCC(c1ccccc1)CC2` (centres unmarked) [Compound 40, N-Hydroxy-2-(1-ethyl-2,4-dioxo-8-phenyl-1,3-diazaspiro [4.5]decan-3-yl)acetamide], for which the 50% effective concentration (EC50) amounted to 6.67 ± 0.05 µM in [1]; 0.68 ± 0.03 µM in data set [2]; 1.12 ± 0.03 µM in data set [4]; 0.52 ± 0.08 µM in [5]; 0.31 ± 0.13 µM in data set [6]; 0.029 ± 0.001 µM in data set [7]. For the same compound, the “increase in activity against T. brucei relative to parent compound” value in [3] is listed as 30 fold. In data set [3], the “SI (CC50 for L6 cells / EC50 for T. brucei)” value is 1870. In addition, the EC90 in data set [4] came to 1.86 ± 0.04 µM; in [7], 0.055 ± 0.003 µM. Moreover, the CC50 at 6 days in data set [8] stood at 54.3 ± 5.9 µM. Moreover, the “SI (CC50 for L6 cells / EC50 for T. cruzi)” value in [9] amounted to 48. This compound also registered a CC50 at 72 h in data set [10] of 10.6 ± 0.12 µM.

Turning to `O=C(CN1C(=O)NC2(CCC(c3ccccc3)CC2)C1=O)NO` (centres unmarked) [Compound 36, N-Hydroxy-2-(2,4-dioxo-8-phenyl-1,3-diazaspiro [4.5]decan-3-yl) acetamide], the half-maximal effective concentration (EC50) is above 10 µM in data set [1]; 4.64 ± 0.11 µM in [2]; above 30 µM in data set [4]; 0.75 ± 0.13 µM in data set [5]; 0.39 ± 0.01 µM in data set [6]; 0.88 ± 0.1 µM in [7]. In addition, in data set [3], the “SI (CC50 for L6 cells / EC50 for T. brucei)” value was determined as 70. For the same compound, the EC90 in [7] is 1.18 ± 0.04 µM. In addition, in [8], the CC50 at 6 days turned out to be 60.8 ± 8.2 µM. In data set [10], this compound yielded a CC50 at 72 h of 75.4 ± 8.46 µM.

In the case of `CC(C(=O)NO)N1C(=O)NC2(CCC(c3ccccc3)CC2)C1=O` (centres unmarked) [Compound 49, N-(Hydroxy)-2-(2,4-dioxo-8-phenyl-1,3-diazaspiro [4.5]decan-3-yl)propanamide], the EC50 is 7.98 ± 0.18 µM in [1]; above 10 µM in data set [2]; 0.876 ± 0.051 µM in [3]; above 30 µM in data set [4]; above 10 µM in data set [5]; above 10 µM in data set [6]. Besides, in data set [7], the EC50 came out at 0.88 µM. The “SI (CC50 for L6 cells / EC50 for T. brucei)” value in data set [3] is given as 270. Moreover, the EC90 in data set [7] worked out at 1.42 ± 0.19 µM. For the same compound, the CC50 in [12] turned out to be 233 ± 33 µM. The compound further displayed a CC50 at 6 days in [8] above 200 µM. Moreover, in data set [10], the CC50 at 72 h is above 10 µM.

Take `O=C(CN1C(=O)NC2(CCCCc3ccccc32)C1=O)NO` (centres unmarked) [IV]: the EC50 in data set [11] (setting [14]) is 0.4 ± 0.04 µM.

With `CN1C(=O)N(CC(=O)NO)C(=O)C12CCCCC2c1ccccc1` (centres unmarked) [Compound 39, N-Hydroxy-2-(1-methyl-2,4-dioxo-6-phenyl-1,3-diazaspiro [4.5]decan-3-yl)acetamide], the EC50 in data set [1] was above 10 µM; in data set [2] it was 4.62 ± 0.39 µM; in [4], above 30 µM; in [5] it was above 10 µM; in data set [6], above 10 µM; in data set [7], 1.46 ± 0.06 µM. Besides, in data set [3], the “SI (CC50 for L6 cells / EC50 for T. brucei)” value came out at 150. In addition, the EC90 in [7] was 1.75 ± 0.02 µM. The compound further gave a CC50 at 6 days in data set [8] of 217 ± 6 µM. Further, in [10], the CC50 at 72 h is above 10 µM.

For `O=C(CN1C(=O)CNC2(CCCCCC2)C1=O)NO` [II], the EC50 in data set [11] (read-out: Trypanocidal activity (T. brucei) EC50) was 1.87 ± 0.08 µM.

As to `O=C(CN1C(=O)N(Cc2ccccc2)C2(CCCCC2c2ccccc2)C1=O)NO` (centres unmarked) [Compound 42, N-Hydroxy-2-(1-benzyl-2,4-dioxo-6-phenyl-1,3-diazaspiro [4.5]decan-3-yl)acetamide], the EC50 in [1] is 4.68 ± 0.23 µM; in data set [2], 1.37 ± 0.08 µM; in [3], 0.191 ± 0.006 µM; in data set [4], 1.95 ± 0.05 µM; in [5] it was above 10 µM; in data set [6], 0.45 ± 0.02 µM. Besides, the EC50 in data set [7] amounted to 0.19 ± 0.01 µM. Besides, the “increase in activity against T. brucei relative to parent compound” value in data set [3] is reported as 23 fold. In addition, the “SI (CC50 for L6 cells / EC50 for T. brucei)” value in data set [3] was 62. The figures for the EC90 in data set [4] and in data set [7] were 3.12 ± 0.12 µM and 0.237 ± 0.003 µM, respectively. Besides, the CC50 at 6 days in data set [8] was 11.9 ± 0.7 µM. In addition, in data set [9], the “SI (CC50 for L6 cells / EC50 for T. cruzi)” value is 6. The same compound had a CC50 at 72 h in data set [10] of 9.37 ± 0.182 µM.

As for `O=C1Cn2c(cc3ccccc32)C(=O)N1O` [I], the 50% effective concentration (EC50) in data set [13] was 126 ± 14.2 µM.

Turning to `O=C(CN1C(=O)NC2(CCCCC2c2ccccc2)C1=O)NO` (centres unmarked) [Compound 37, N-Hydroxy-2-(2,4-dioxo-6-phenyl-1,3-diazaspiro [4.5]decan-3-yl) acetamide], the concentration for a half-maximal effect (EC50) was above 10 µM in [1]; above 10 µM in data set [2]; above 30 µM in data set [4]; above 10 µM in [5]; above 10 µM in data set [6]; 4.41 ± 0.22 µM in data set [7]. Besides, in [3] (2-phenyl versus 4-phenyl cyclohexane ring), the “T. brucei EC50 fold higher than that of 36” value is listed as 5 fold. Besides, the “SI (CC50 for L6 cells / EC50 for T. brucei)” value in [3] stood at 55. In addition, in data set [7], the EC90 came to 5.92 ± 0.09 µM. The CC50 in data set [12] was determined as 246 ± 3 µM. Also, in data set [8], the CC50 at 6 days is above 200 µM. The compound also came in with a CC50 at 72 h in data set [10] above 10 µM.
